Data: patent publication EP4458977A1, “SELF-ASSEMBLING PEPTIDE AMPHIPHILES AS RETROVIRAL TRANSDUCTION ENHANCERS” (Max-Planck-Gesellschaft zur Förderung der Wissenschaften …, priority 2023, dated 2024)
“And” between values parts separate entries of the source, which are not always exact repeats. Equal entries are not always repeated. “Also recorded” adds a separate entry of the source. Where two headings read alike, the source gives them in different places. Where a SMILES comes first, the peptide text is derived from it. Where no end group is shown, it is not given here. The star is where a group is joined. X1 = CC/C=C\C/C=C\C/C=C\C/C=C\C/C=C\CCCC(=O)*; 2‑naphthylmethyl = c1ccc2cc(C*)ccc2c1; Fmoc = O=C(OCC1c2ccccc2-c2ccccc21)*; Palmitoyl = CCCCCCCCCCCCCCCC(=O)*

Legend:
HIV-1 = conditions: for Infectivity enhancing N fold at 1.3 µM: relative to virus only; for enhancement of HIV-1 infection / transduction (in words): 6.5 µM, 1.3 µM, 0.26 µM;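 on all read-outs here: TZM-bl reporter cells exposed to HIV-1 with peptide fibrils, infection read out as β-galactosidase luminescence, compared with virus alone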
Experimental: HIV-1 Infection Assay with TZM-bl cells: The effect of peptide fibrils on HIV-1 infection was studied via a luminescence assay for β-galactosidase, which was reported by TZM-bl cells upon infection. The HIV-1 infection assay was conducted in three technical replicates and repeated in three independent experiments unless stated otherwise.

[1] = Zeta-potential measurement (dynamic light scattering); assay type: physicochemical
[2] = as above; assay type: physicochemical; conditions: for Count Rate / kcps: derived count rate of scattered light during zeta-potential measurements
Experimental: Zeta-potential: 60 µL of the peptides (1 mg mL-1) were diluted in 600 µL, 1 mM KCI solution and placed in a disposable folded capillary cuvette. All zeta-potential measurements were conducted by dynamic light scattering technology (Zetasizer, Malvern Instruments) and in triplicates for each sample. The derived count rate of the zeta potential measurement was used as information on the light scattering intensity and turbidity of the sample as a further indicator for microscopic aggregation.

[3] = ATR-FT-IR determination of β-sheet content; assay type: physicochemical; conditions: 1 mg/mL in PBS lyophilized; integral at 1630 cm^-1 relative to 1650-1700 cm^-1
Procedure, shortened: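 From second-derivative spectra, β-sheet amount is the 1630 cm-1 integral over the 1650-1700 cm-1 (native) region. Spectra were taken on solid, lyophilized fibrils via diamond-crystal ATR, averaging 64 scans at 2 cm^-1 resolution.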

[4] = Fluorescence microscopy of ThT-stained fibrils (µm-sized aggregates); assay type: physicochemical; conditions: for fluorescent, µm-sized aggregates (ThT staining): 1 mg/mL stained with 50 µM ThT
Procedure, shortened: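 Fibrils (1 mg mL^-1) mixed 1:9 with 50 µM ThT, giving 0.1 mg mL^-1 stained fibrils on glass. Imaged under 10x air objective with excitation 480/40 nm and emission 527/30 nm. Fibrils called distinct when no visible structures appeared in fluorescence or brightfield.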

[5] = TEM of peptide assemblies (fibril formation / assembly); assay type: physicochemical; parameters: key to Fibril Formation: "1" means fibril formation observed; "0" means no fibrils observed; conditions: for TEM morphology (in words): 1 mg/mL in PBS; for Assembly without hydrophob residue: corresponding peptide without hydrophobic moiety; for Assembly: peptide amphiphile; for Fibril Formation: via TEM
Procedure, shortened: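 Peptides predissolved in DMSO at 10 mg/mL (stock), diluted in PBS to 650 µM or 1 mg/mL final and incubated 1 d at rt (20–25 °C) to form fibrils. Other concentrations obtained by diluting preformed fibrils; assemblies imaged by TEM.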

[6] = Thioflavin T (ThT) fluorescence assay; assay type: physicochemical; conditions: relative to PBS control
Experimental: Transmission electron microscopy (TEM) measurements, Thioflavin (ThT), zeta-potential measurements for fibril characterization were prepared and conducted according to prior art procedures. […] Fibrils were defined as distinct, if no visible structures could be identified in fluorescence and brightfield microscopy. A peptide fibril was considered as ThT-active if the fluorescence intensity was at least twice as strong compared to the control (PBS containing 10% DMSO).

HeLa cells = test: Confocal laser scanning microscopy and degradation study with PA library and HeLa cells; assay type: cell-based; conditions: for association with cellular membranes: 2 µg added to 20.000 HeLa cells, 30 min; for degradability (in words) / Degradability / % (rel. to initial particles > 10 µm^2): HeLa cells; for degradability (in words): 3 days; for Degradability / % (rel. to initial particles > 10 µm^2): 3 d relative to 30 min; for aggregate number decreases / degraded in presence of HeLa cells within 3 days: d3 relative to d0
Procedure, shortened: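 HeLa cells (20,000/well) got Proteostat-stained PAs (2 µg peptide per 20.000 cells) with Hoechst nuclear stain, 30 min at 37°C, PBS-washed, then held 3 d at 37°C unwashed. Confocal imaging at d0 and d3 counted aggregates >10 µm^2 in 1008 × 1008 µm, three technical replicates. Degradation taken as d3/d0 aggregate number.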

| Compound | Infectivity enhancing N fold at 1.3 µM (HIV-1) | Zeta-Potential / mV [1] | zeta-potential (in words) [2] | Count Rate / kcps [2] | β-sheet amount [3] | formation of µm-sized aggregates in aqueous medium / PBS (in words) [4] | TEM morphology (in words) [5] | Assembly without hydrophob residue [5] | Assembly [5] | Fibril Formation ([5]; hydrophobic moiety exchange) | N-fold ThT-fluorescence [6] | enhances infectivity at 1.3 µM concentration, times more efficient compared to virus only infection (HIV-1) | enhancement of HIV-1 infection / transduction (in words) (HIV-1) | association with cellular membranes (HeLa cells) | degradability (in words) (HeLa cells) | Degradability / % (rel. to initial particles > 10 µm^2) (HeLa cells) | aggregate number decreases / degraded in presence of HeLa cells within 3 days (HeLa cells) | fluorescent, µm-sized aggregates (ThT staining) [4] | also measured |
| --- | --- | --- | --- | --- | --- | --- | --- | --- | --- | --- | --- | --- | --- | --- | --- | --- | --- | --- | --- |
| Nap-VVVAAAKKK-NH2 ({2‑naphthylmethyl}-VVVAAAKKK-NH2; SMILES CC(C)[C@H](NCc1ccc2ccccc2c1)C(=O)N[C@H](C(=O)N[C@H](C(=O)N[C@@H](C)C(=O)N[C@@H](C)C(=O)N[C@@H](C)C(=O)N[C@@H](CCCCN)C(=O)N[C@@H](CCCCN)C(=O)N[C@@H](CCCCN)C(N)=O)C(C)C)C(C)C) [Pat13] | 1±1 N fold | 1.2 mV | almost neutral zeta-potential | 9.3 kcps | 46% | failed to form µm-sized aggregates in aqueous medium | formed fibrils in aqueous medium | No | Yes | 1 | 1.3 | – | – | – | – | – | – | – | infectivity enhancement at 1.3 µM concentration compared to virus only infection (in words) (HIV-1): does not enhance infectivity |
| CC/C=C\C/C=C\C/C=C\C/C=C\C/C=C\CCCC(=O)N[C@H](C(=O)N[C@H](C(=O)N[C@H](C(=O)N[C@@H](C)C(=O)N[C@@H](C)C(=O)N[C@@H](C)C(=O)N[C@@H](CCCCN)C(=O)N[C@@H](CCCCN)C(=O)N[C@@H](CCCCN)C(N)=O)C(C)C)C(C)C)C(C)C [Pat10] (X1-VVVAAAKKK-NH2) | 12±1 N fold | 16.9 mV | positive zeta-potential | 6069.8 kcps | 51% | form µm-sized aggregates | able to form fibrils; also recorded: condensed spherical structures composed of fibrils | No | Yes | 1 | 61.9 | 12 times | showed infectivity enhancement | association with cellular membranes | degradable PA | 99% | 99% | fluorescent, µm-sized aggregates | enhancement of HIV-1 infection / transduction (in words) (HIV-1; listed as peptide amphiphile with eicosapentaenoic acid (EPA)): even stronger infectivity enhancement than the reference compounds EF-C or PA1 |
| C16-thioester-CVVVAAAKKK-NH2 (C(Palmitoyl)VVVAAAKKK-NH2; N-terminus assumed; SMILES CCCCCCCCCCCCCCCC(=O)SC[C@H](N)C(=O)N[C@H](C(=O)N[C@H](C(=O)N[C@H](C(=O)N[C@@H](C)C(=O)N[C@@H](C)C(=O)N[C@@H](C)C(=O)N[C@@H](CCCCN)C(=O)N[C@@H](CCCCN)C(=O)N[C@@H](CCCCN)C(N)=O)C(C)C)C(C)C)C(C)C) [Pat3] | 11±4 N fold | 18.3 mV | – | 2058.5 kcps | 50% | – | fibrillar morphologies | No | Yes | – | 166.1 | 11 times | potent enhancers of HIV-1 infection | association with cellular membranes | degradable PA | 87% | 87% | fluorescent, µm-sized aggregates | Fibril Formation ([5]; linkage chemistry exchange): 1 |
| CC(C)[C@H](NC(=O)OCC1c2ccccc2-c2ccccc21)C(=O)N[C@H](C(=O)N[C@H](C(=O)N[C@@H](C)C(=O)N[C@@H](C)C(=O)N[C@@H](C)C(=O)N[C@@H](CCCCN)C(=O)N[C@@H](CCCCN)C(=O)N[C@@H](CCCCN)C(N)=O)C(C)C)C(C)C [Pat12] (Fmoc-VVVAAAKKK-NH2) | 5±1 N fold | 15.2 mV | positive zeta-potential | 509.5 kcps | 52% | form µm-sized aggregates | able to form fibrils; also recorded: fibrillar morphologies | No | Yes | 1 | 269.9 | 5 times | showed infectivity enhancement | association with cellular membranes | non-degradable PA | 28% | 28% | fluorescent, µm-sized aggregates | – |
| CCCCCCCCCCCCCCCC(=O)N[C@@H](C)C(=O)N[C@@H](CC(C)C)C(=O)N[C@@H](C)C(=O)N[C@@H](C)C(=O)NCC(=O)N[C@@H](CCCCN)C(=O)N[C@@H](CCCCN)C(N)=O [Pat20, C16-ALAAGKK-NH2] (Palmitoyl-ALAAGKK-NH2) | 5±1 N fold | 20.2 mV | – | – | 48% | – | fibrillar morphologies | No | Yes | – | – | 5 times | – | association with cellular membranes | degradable PA | 87% | 87% | fluorescent, µm-sized aggregates | – |
| CCCCCCCCCCCCCCCC(=O)N[C@@H](CC(C)C)C(=O)N[C@@H](CC(C)C)C(=O)N[C@@H](CC(C)C)C(=O)N[C@@H](CCCCN)C(=O)N[C@@H](CCCCN)C(N)=O [Pat23, C16-LLLKK-NH2] (Palmitoyl-LLLKK-NH2) | 3±0 N fold | 20.9 mV | – | – | 46% | – | fibrillar morphologies | No | Yes | – | – | 3 times | – | association with cellular membranes | moderately degradable PA | 27% | 27% | fluorescent, µm-sized aggregates | – |
| CCCCCCCCCCCCCCCC(=O)N[C@@H](C)C(=O)N[C@@H](CCCCN)C(=O)N[C@@H](C)C(=O)N[C@H](C(=O)NCC(=O)N[C@@H](CCCCN)C(N)=O)C(C)C [Pat31, C16-AKAVGK-NH2] (Palmitoyl-AKAVGK-NH2) | 6 N fold and 6±3 N fold | 19.7 mV | – | – | 43% | – | fibrillar morphologies | No | Yes | – | – | 6 times | – | association with cellular membranes | degradable PA | 89% | 89% | fluorescent, µm-sized aggregates | – |
